# Experimental data taken from BindingDB's records for patent US10781211 (LUNDBECK LA JOLLA RESEARCH CENTER, INC., 2020).
# Target: T1, Monoglyceride lipase (Homo sapiens, UniProt Q99685)
# T1 sequence (Q99685 whole entry): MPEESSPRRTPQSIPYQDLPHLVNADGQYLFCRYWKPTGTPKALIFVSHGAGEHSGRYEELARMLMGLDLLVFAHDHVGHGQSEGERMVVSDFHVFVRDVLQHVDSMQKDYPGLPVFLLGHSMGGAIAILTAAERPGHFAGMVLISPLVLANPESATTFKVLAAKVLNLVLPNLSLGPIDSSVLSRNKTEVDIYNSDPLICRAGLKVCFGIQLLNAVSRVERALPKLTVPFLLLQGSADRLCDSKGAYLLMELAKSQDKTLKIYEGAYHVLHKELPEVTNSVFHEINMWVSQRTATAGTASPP
# Test: In Vitro Competitive Activity-Based Protein Profiling Assay
# Description: Human: Proteomes (human prefrontal cortex or cell membrane fractions) (50 μL, 1.0-2.0 mg/mL total protein concentration) were preincubated with varying concentrations of inhibitors at 37° C. After 30 min, FP-Rh or JW912 (1.0 μL, 50 μM in DMSO) was added and the mixture was incubated for another 30 min at room temperature. Reactions were quenched with SDS loading buffer (15 μL-4X) and run on SDS-PAGE.
row,IC50,Structure (SMILES)
1,< 100 nM,"CC1CCCN(c2cc(C(F)(F)F)ccc2CN2CCC3(CCN(C(=O)OC(C(F)(F)F)C(F)(F)F)CC3)C2)C1 (configuration not stated) [US10781211, Example 216]"
2,< 100 nM,"O=C(OC(C(F)(F)F)C(F)(F)F)N1CCC2(CCN(Cc3cc(CN4CCCCC4)cc(C(F)(F)F)c3)C2)CC1 [US10781211, Example 245]"
3,< 100 nM,"O=C(OC(C(F)(F)F)C(F)(F)F)N1CCC2(CCN(Cc3ccc(N4CCCCC4)c(C(F)(F)F)c3)C2)CC1 [US10781211, Example 228]"
4,< 100 nM,"O=C(OC(C(F)(F)F)C(F)(F)F)N1CCC2(CCCN2Cc2cc(N3CCCCC3)cc(S(F)(F)(F)(F)F)c2)CC1 [US10781211, Example 263]"
5,< 100 nM,"O=C(OC(C(F)(F)F)C(F)(F)F)N1CCC2(CCCN2Cc2cc(N3CCOCC3)cc(C(F)(F)F)c2)CC1 [US10781211, Example 204]"
6,< 100 nM,"O=C(OC(C(F)(F)F)C(F)(F)F)N1CCC2(CCCN2Cc2cc(N3CCCC3)cc(C(F)(F)F)c2)CC1 [US10781211, Example 203]"
7,< 100 nM,"CC1CCN(c2cc(CN3CCC4(CCN(C(=O)OC(C(F)(F)F)C(F)(F)F)CC4)C3)cc(C(F)(F)F)c2)C1 (configuration not stated) [US10781211, Example 229]"
8,< 100 nM,"O=C(OC(C(F)(F)F)C(F)(F)F)N1CCC2(CCN(Cc3cc(N4CCOCC4)cc(C(F)(F)F)c3)C2)CC1 [US10781211, Example 277]"
9,< 100 nM,"O=C(OC(C(F)(F)F)C(F)(F)F)N1CCC2(CCN(Cc3ccc(C(F)(F)F)c(N4CCCCC4)c3)C2)CC1 [US10781211, Example 234]"
10,< 100 nM,"O=C(OC(C(F)(F)F)C(F)(F)F)N1CCC2(CCCN2Cc2cc(CN3CCCCC3)cc(C(F)(F)F)c2)CC1 [US10781211, Example 244]"
11,< 100 nM,"O=C(OC(C(F)(F)F)C(F)(F)F)N1CCC2(CCCN2Cc2cc(F)cc(N3CCCCC3)c2)CC1 [US10781211, Example 236]"
12,< 100 nM,"O=C(OC(C(F)(F)F)C(F)(F)F)N1CCC2(CCN(Cc3ccc(C(F)(F)F)cc3N3CCCC3)C2)CC1 [US10781211, Example 201]"
13,< 100 nM,"O=C(OC(C(F)(F)F)C(F)(F)F)N1CCC2(CCCN2Cc2cc(CN3CCCCC3)cc(OC(F)(F)F)c2)CC1 [US10781211, Example 269]"
14,< 100 nM,"O=C(OC(C(F)(F)F)C(F)(F)F)N1CCC2(CCN(Cc3cc(F)cc(N4CCCCC4)c3)C2)CC1 [US10781211, Example 233]"
15,< 100 nM,"CC1CCCN(c2cc(CN3CCCC34CCN(C(=O)OC(C(F)(F)F)C(F)(F)F)CC4)cc(C(F)(F)F)c2)C1 (configuration not stated) [US10781211, Example 221]"
16,< 100 nM,"O=C(OC(C(F)(F)F)C(F)(F)F)N1CCC2(CCN(Cc3cc(N4CCCC4)cc(C(F)(F)F)c3)C2)CC1 [US10781211, Example 202]"
17,< 100 nM,"O=C(OC(C(F)(F)F)C(F)(F)F)N1CCC2(CCN(Cc3ccc(S(F)(F)(F)(F)F)cc3N3CCCCC3)C2)CC1 [US10781211, Example 241]"
18,< 100 nM,"CC1CCN(c2cc(C(F)(F)F)ccc2CN2CCC3(CCN(C(=O)OC(C(F)(F)F)C(F)(F)F)CC3)C2)C1 (configuration not stated) [US10781211, Example 219]"
19,< 100 nM,"CC1CN(c2cc(CN3CCC4(CCN(C(=O)OC(C(F)(F)F)C(F)(F)F)CC4)C3)cc(C(F)(F)F)c2)CCO1 (configuration not stated) [US10781211, Example 252]"
20,< 100 nM,"O=C(OC(C(F)(F)F)C(F)(F)F)N1CCC2(CCN(Cc3cc(Cl)cc(N4CCCCC4)c3)C2)CC1 [US10781211, Example 232]"
21,< 100 nM,"O=C(OC(C(F)(F)F)C(F)(F)F)N1CCC2(CCCN2Cc2cc(CN3CCCC3)cc(OC(F)(F)F)c2)CC1 [US10781211, Example 270]"
22,< 100 nM,"O=C(OC(C(F)(F)F)C(F)(F)F)N1CCC2(CCCN2Cc2ccc(C(F)(F)F)cc2CN2CCCC2)CC1 [US10781211, Example 262]"
